Results taken from patent publication US20210315839A1, “USE OF SPERMIDINE FOR THE ENHANCEMENT OF MITOCHONDRIAL RESPIRATION” (TLL THE LONGEVITY LABS GMBH, priority 2016, published 2021).

System: mitochondrial Complex I
Test: High resolution respirometry of cardiac mitochondria isolated from spermidine supplemented aged mice (Complex I activity)
Type: in vivo, C57BL/6 mice
Conditions: for activity of mitochondrial Complex I (respiratory competence of cardiac mitochondria through respiratory chain complex I, OXPHOS stage): isolated cardiac mitochondria of 24 month old mice after 6 months of spermidine supplementation (24M+S) vs aged control (24M), complex I supplying substrates, 37° C., N-5/5
Experimental: Mitochondria isolated from cardyomyocytes of spermidine or sham treated 24 month old and 4 month old (young reference) C57B/63 wildtype mice were used for measurement of mitochondrial respiratory activity.
Wild type C57BL/6 mice were purchased from Janvier Labs, France (C57BL6/J:Rj males). Supplementation of spermidine was conducted late in life (starting at age of 18 months). After 6 months of treatment, isolation of cardiac mitochondria and high resolution respirometry was performed, using an isolation buffer containing 0.2% BSA and 5 mg/ml bacterial protease (Sigma-Aldrich, P8038). Hearts were quickly excised immediately after final blood collection under isoflurane anaesthesia and processed.
Optical density at 600 nm (0D600) of the final mitochondrial suspension (isolation buffer including BSA, but excluding protease) was determined by serial dilutions in a TECAN GeniusPro plate reader and served as an estimate of mitochondrial mass used for normalization. Oxygen consumption was assayed at 37° C. with an Oxygraph 2 k high resolution respirometer (Oroboros Instruments, Austria) according to the manufacturer's recommendations. OD600 equivalents of isolated myocardial mitochondria corresponding to 10-20 ug mitochondrial protein were diluted in 2 ml equilibrated measurement medium (100 mM sucrose, 20 mM K+−TES (pH=7.2), 50 mM KCl, 2 mM MgCl2, 1 mM EDTA, 4 mM KH2PO4, 3 mM malate and 0.1% (v/v) BSA) within a closed and calibrated system with constant stirring. […]
In FIG. 1A representative oxygraph recordings and (B) quantification of mitochondrial respiration (only OXPHOS stage shown) from isolated cardiac mitochondria incubated with complex I supplying substrates […] and pyruvate (Gly/Pyr) are shown. ROX, Residual respiration (State 1) in the absence of reduced substrate and ADP; LEAK, Respiration compensating for proton leak in the absence of ADP but presence of reduced substrate; OXPHOS, ADP stimulated respiration of coupled mitochondria (quantification shown in FIG. 1B); OXPHOS+CytC, Oxphos after addition of cytochrome C. […]

SMILES: NCCCCNCCCN [Spermidine, N-(3-Aminopropyl)-1,4-diaminobutane]
- age-induced decline in mitochondrial respiratory function (aged spermidine supplemented mice vs aged control and young reference mice, cardiac mitochondria): reversed
- activity of mitochondrial Complex I (respiratory competence of cardiac mitochondria through respiratory chain complex I, OXPHOS stage): increases the activity of mitochondrial Complex I
- activity of mitochondrial Complex I (respiratory competence of cardiac mitochondria through respiratory chain complex I, OXPHOS stage) (listed as spermidine): increased
